We go through 14 molecules from ChEMBL document CHEMBL1201862, “PubChem BioAssay data set” (2004).

Among the test systems are COLO 205; HCC 2998; HCT-15; IGROV-1; Malme-3M; NCI-H226; NCI-H460; OVCAR-5; SK-MEL-5; SN12C; SNB-19; SR; UACC-257; UACC-62; U-251.
Assay in all cases: NCI-60 cell line screen, 48 h

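All cell lines were grown in 96-well plates and treated with compound for 48 hours. The concentration for 50% growth inhibition is given as GI50.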 Activity calls are given as the source filed them. Cut-off read from the data, not from the text of the source: active = GI50 up to about 1.1 µM and inactive = higher. Where only a bound is given, the exact number is not on record here.

With `O=C(O)C12C3CCC(C3)C1(C(=O)O)C1CCC2C1` (configuration not stated), the GI50 with COLO 205 was 33 µM (inactive); with HCC 2998, > 100 µM (inactive); with HCT-15, 39.8 µM; in the test with IGROV-1, > 100 µM (inactive); with Malme-3M, > 100 µM (inactive); in the test on NCI-H226 it was > 100 µM (inactive). In addition, the GI50 with NCI-H460 was 81.3 µM (inactive); with OVCAR-5 it was > 100 µM (inactive); with SK-MEL-5, > 100 µM (inactive); in the test with SN12C it was > 100 µM (inactive); with SNB-19, > 100 µM (inactive); in the test with SR, 60.3 µM (inactive). Besides, the GI50 in the test on UACC-257 and in the test with UACC-62 was > 100 µM (inactive) each time.
With `COc1cc(C2(C)SCCCS2)cc(OC)c1OC`, the GI50 in the test on COLO 205 was > 100 µM (inactive); in the test on HCC 2998 it was > 100 µM (inactive); in the test with HCT-15 it was above 100 µM; in the test on IGROV-1, > 100 µM (inactive); in the test with Malme-3M, > 100 µM (inactive); in the test with NCI-H226 it was > 100 µM (inactive). The GI50 in the test on NCI-H460, with OVCAR-5, in the test with SK-MEL-5, in the test with SN12C, with SNB-19 and with SR was > 100 µM (inactive) throughout. The GI50 in the test on U-251, with UACC-257 and in the test on UACC-62 was > 100 µM (inactive) in each case.
Take `COc1cc2ccnc3c2c(c1OC)CC1CC(O)C(OC)CC31` (configuration not stated): the GI50 with COLO 205 was 43.2 µM (inactive); with HCC 2998, 42.7 µM (inactive); in the test on HCT-15, 63.8 µM; in the test with IGROV-1, 66.4 µM (inactive); with Malme-3M it was > 100 µM (inactive); in the test with NCI-H226, 96.4 µM (inactive). For the same molecule, the GI50 in the test with NCI-H460 is 35.6 µM (inactive); in the test on OVCAR-5, 37.5 µM (inactive); in the test on SK-MEL-5 it was 38.4 µM (inactive); in the test with SN12C, 41.4 µM (inactive); with SNB-19 it was 99.3 µM (inactive); in the test with SR, 32 µM (inactive). For the same molecule, the figures for the GI50 in the test on U-251, in the test on UACC-257 and in the test with UACC-62 were 38 µM (inactive), 37.1 µM (inactive) and 38.5 µM (inactive), respectively.
As to `Cc1ccc2[nH]c3c4c5ccccc5nc-4c[nH]c3c2c1`, the GI50 was 17.5 µM (inactive) in the test with COLO 205; 16.1 µM (inactive) in the test on HCC 2998; 15 µM (inactive) in the test on IGROV-1; 19.1 µM (inactive) in the test on Malme-3M; 16.1 µM (inactive) with NCI-H226; 15.3 µM (inactive) in the test on NCI-H460. The GI50 was 17.1 µM (inactive) in the test on OVCAR-5; 16.3 µM (inactive) in the test on SN12C; 17.3 µM (inactive) in the test on SNB-19; 14.8 µM (inactive) with U-251; 18.1 µM (inactive) in the test on UACC-257; 16.4 µM (inactive) in the test with UACC-62.
Turning to `Oc1ccc(-c2n[nH]c(S)n2)cc1`, the GI50 with COLO 205 is > 100 µM (inactive); in the test on HCT-15 it was above 100 µM; in the test with IGROV-1 it was > 100 µM (inactive); in the test on Malme-3M, > 100 µM (inactive); with NCI-H226 it was > 100 µM (inactive); in the test with NCI-H460, > 100 µM (inactive). In addition, the GI50 with OVCAR-5, in the test on SK-MEL-5, in the test on SN12C, with SNB-19, in the test with SR and in the test on U-251 was > 100 µM (inactive) each time. For the same molecule, the GI50 with UACC-257 and with UACC-62 was > 100 µM (inactive) each time.
As to `Cc1ccc(/C=C(\NC(=O)c2ccccc2)c2nc3ccccc3[nH]2)cc1`, the GI50 was 48.2 µM (inactive) in the test on COLO 205; 49.5 µM (inactive) in the test with HCC 2998; 45.6 µM in the test with HCT-15; > 100 µM (inactive) in the test with IGROV-1; 45.5 µM (inactive) with Malme-3M; 37.2 µM (inactive) in the test on NCI-H460. Also, the GI50 is > 100 µM (inactive) in the test on OVCAR-5; 12.8 µM (inactive) with SK-MEL-5; 61 µM (inactive) with SN12C; 39.4 µM (inactive) in the test on SNB-19; 37.4 µM (inactive) in the test with SR; 41.2 µM (inactive) with U-251. Besides, the GI50 is 35.3 µM (inactive) in the test on UACC-257 and 83.6 µM (inactive) with UACC-62.
`O=C(c1ccco1)N(C(=S)N1CCN(c2ccccc2)CC1)c1ccccc1`: the GI50 in the test on COLO 205 was > 100 µM (inactive); in the test with HCT-15, above 100 µM; in the test with IGROV-1 it was > 100 µM (inactive); in the test on Malme-3M it was > 100 µM (inactive); with NCI-H226, 25.6 µM (inactive); in the test on NCI-H460, > 100 µM (inactive). Also, the GI50 is > 100 µM (inactive) with OVCAR-5; > 100 µM (inactive) with SK-MEL-5; > 100 µM (inactive) in the test with SN12C; > 100 µM (inactive) in the test with SNB-19; 72.4 µM (inactive) with SR; > 100 µM (inactive) in the test on U-251. Also, the GI50 in the test with UACC-257 and in the test with UACC-62 was > 100 µM (inactive) throughout.
For the molecule `CCOC(=O)C(=O)Nc1ccc([N+](=O)[O-])cc1C#N`, the GI50 with HCC 2998 was > 100 µM (inactive); in the test with HCT-15, above 100 µM; in the test on IGROV-1, > 100 µM (inactive); in the test with Malme-3M it was > 100 µM (inactive); in the test with NCI-H226, > 100 µM (inactive); in the test on NCI-H460 it was > 100 µM (inactive). Also, the GI50 with OVCAR-5, with SK-MEL-5, in the test with SN12C, with SNB-19, in the test on SR and in the test with U-251 was > 100 µM (inactive) each time. Moreover, the GI50 in the test with UACC-257 and with UACC-62 was > 100 µM (inactive) each time.
For `c1ccc2c(c1)nnn2CNc1ccc(N2CCCCC2)cc1`, the GI50 in the test on COLO 205 is > 100 µM (inactive); in the test with HCC 2998 it was > 100 µM (inactive); in the test on HCT-15 it was above 100 µM; in the test on IGROV-1, > 100 µM (inactive); with Malme-3M, > 100 µM (inactive); in the test with NCI-H226, > 100 µM (inactive). Besides, the GI50 was > 100 µM (inactive) in the test on NCI-H460; > 100 µM (inactive) in the test with SN12C; > 100 µM (inactive) in the test with SNB-19; 62.7 µM (inactive) with SR; > 100 µM (inactive) in the test on U-251; > 100 µM (inactive) in the test on UACC-257. Moreover, the GI50 in the test with UACC-62 was > 100 µM (inactive).
As to `COC(=O)C(C(=O)C(=O)Nc1ccc(C)cc1C)c1nc2ccc([N+](=O)[O-])cc2nc1O` (configuration not stated), the GI50 with COLO 205 is 95.7 µM (inactive); in the test with HCT-15 it was above 100 µM; in the test with IGROV-1, > 100 µM (inactive); in the test on Malme-3M, > 100 µM (inactive); in the test on NCI-H226 it was > 100 µM (inactive); in the test on NCI-H460 it was > 100 µM (inactive). The GI50 with OVCAR-5, with SK-MEL-5, in the test on SN12C, with SNB-19, in the test with SR and in the test with U-251 was > 100 µM (inactive) each time. In addition, the GI50 with UACC-257 and in the test with UACC-62 was > 100 µM (inactive) throughout.
In the case of `CNC(=O)NCNC(=O)NC`, the GI50 with COLO 205 was > 100 µM (inactive); with HCC 2998 it was > 100 µM (inactive); in the test on HCT-15, above 100 µM; with IGROV-1 it was > 100 µM (inactive); in the test on Malme-3M, > 100 µM (inactive); in the test with NCI-H460, > 100 µM (inactive). The GI50 with OVCAR-5, with SK-MEL-5, with U-251, in the test with UACC-257 and with UACC-62 was > 100 µM (inactive) in each case.
For the molecule `Cc1cc(N(CCC#N)CCC#N)ccc1/C=C1\N=C(c2cc([N+](=O)[O-])ccc2Cl)N(NC(=O)c2ccc(/N=C\c3ccc(N(CCC#N)S(C)(=O)=O)cc3C)cc2)C1=O`, the GI50 was > 100 µM (inactive) in the test on COLO 205; > 100 µM (inactive) in the test with HCC 2998; 33 µM with HCT-15; > 100 µM (inactive) with IGROV-1; > 100 µM (inactive) with Malme-3M; > 100 µM (inactive) in the test on NCI-H226. In addition, the GI50 in the test on NCI-H460 is > 100 µM (inactive); in the test on OVCAR-5, > 100 µM (inactive); with SK-MEL-5, 38.2 µM (inactive); with SN12C, > 100 µM (inactive); in the test with SNB-19, > 100 µM (inactive); with U-251, > 100 µM (inactive). In addition, the values for the GI50 in the test with UACC-257 and in the test with UACC-62 were 63.4 µM (inactive) and 24.2 µM (inactive), respectively.
For the molecule `CCO[C@]12C[C@H](OC)[C@@]3(O)CC(C1[C@H]3OCc1ccccc1)C13C4C2[C@H](OC)C1[C@](COC)(CN4CC)[C@H](O)C[C@@H]3OC` (some centres not stated), the GI50 in the test with COLO 205 was > 100 µM (inactive); with HCC 2998, > 100 µM (inactive); with HCT-15 it was above 100 µM; with IGROV-1 it was > 100 µM (inactive); in the test with NCI-H226 it was > 100 µM (inactive); with NCI-H460, > 100 µM (inactive). Besides, the GI50 in the test with OVCAR-5 is > 100 µM (inactive); in the test with SK-MEL-5, > 100 µM (inactive); with SN12C it was > 100 µM (inactive); with SNB-19 it was > 100 µM (inactive); with SR, 78.5 µM (inactive); with U-251, > 100 µM (inactive). The GI50 in the test with UACC-257 and in the test with UACC-62 was > 100 µM (inactive) in each case.
Consider `COC(=O)C1CC(C(=O)OC)c2nc3cc(C)ccc3nc21` (configuration not stated), for which the GI50 was > 100 µM (inactive) in the test with COLO 205; > 100 µM (inactive) with HCC 2998; above 100 µM in the test with HCT-15; > 100 µM (inactive) in the test on IGROV-1; > 100 µM (inactive) with Malme-3M; > 100 µM (inactive) in the test on NCI-H226. For the same molecule, the GI50 in the test on NCI-H460, with OVCAR-5, in the test on SK-MEL-5, with SN12C, with SNB-19 and with U-251 was > 100 µM (inactive) each time. Further, the GI50 was 58.3 µM (inactive) in the test on UACC-257 and > 100 µM (inactive) in the test on UACC-62.
